# Experimental data from US11807644B2 (PMV Pharmaceuticals, Inc., priority 2020, dated 2023).
# Molecular target: T1, recombinant His-tag Y220C p53 DBD protein (Homo sapiens, UniProt P04637, Y220C)
# T1 construct: recombinant His-tag Y220C p53 DBD protein (amino acids #˜94-312)
# Assay: In vitro DNA binding activity assay (TR-FRET): binding of His-tag Y220C p53 DBD to biotin-labeled consensus DNA
# Format: biochemical
# Details: SC150 = concentration to increase DNA binding by […], His-tag Y220C p53 DBD, biotin-labeled consensus DNA
row,Y220C SC150 (μM),SMILES
1,**** (**** = 1 μM ≤ SC150 < 10 μM),"CN1CCC(Nc2cccc3c2cc(-c2cc(C(N)c4ccccc4)[nH]n2)n3CC(F)(F)F)CC1 (stereo not shown) [Compound 20B, 2-{5-[amino(phenyl)methyl]-1H-pyrazol-3-yl}-N-(1-methylpiperidin-4-yl)-1-(2,2,2-trifluoroethyl)-1H-indol-4-amine]"
2,**** (**** = 1 μM ≤ SC150 < 10 μM),"CN1CCC(Nc2cccc3c2cc(-c2cc(N)[nH]n2)n3CC(F)(F)F)CC1 [Compound 21B, 2-(5-amino-1H-pyrazol-3-yl)-N-(1-methylpiperidin-4-yl)-1-(2,2,2-trifluoroethyl)-1H-indol-4-amine]"
3,** (** = 0.1 μM ≤ SC150 < 0.5 μM),"CN1CCC(Nc2cccc3c2cc(-c2cc(CNc4ccc(S(C)(=O)=O)cc4)[nH]n2)n3CC(F)(F)F)CC1 [Compound 22B, 2-(5-{[(4-methanesulfonylphenyl)amino]methyl}-1H-pyrazol-3-yl)-N-(1-methylpiperidin-4-yl)-1-(2,2,2-trifluoroethyl)-1H-indol-4-amine]"
4,**** (**** = 1 μM ≤ SC150 < 10 μM),"CNc1cc(-c2cc3c(NC4CCN(C)CC4)cccc3n2CC(F)(F)F)n[nH]1 [Compound 23B, 2-[5-(methylamino)-1H-pyrazol-3-yl]-N-(1-methylpiperidin-4-yl)-1-(2,2,2-trifluoroethyl)-1H-indol-4-amine]"
5,** (** = 0.1 μM ≤ SC150 < 0.5 μM),"CN1CCC(Nc2cccc3c2cc(-c2nnc(CNc4ccc(S(C)(=O)=O)cc4)s2)n3CC(F)(F)F)CC1 [Compound 24B, 2-(5-{[(4-methanesulfonylphenyl)amino]methyl}-1,3,4-thiadiazol-2-yl)-N-(1-methylpiperidin-4-yl)-1-(2,2,2-trifluoroethyl)-1H-indol-4-amine]"
6,** (** = 0.1 μM ≤ SC150 < 0.5 μM),"CN1CC[C@H](Nc2cccc3c2cc(-c2nnc(CNC(=O)C4CC4)s2)n3CC(F)(F)F)[C@H](F)C1 [Compound 25B, N-{[5-(4-{[(3R,4S)-3-fluoro-1-methylpiperidin-4-yl]amino}-1-(2,2,2-trifluoroethyl)-1H-indol-2-yl)-1,3,4-thiadiazol-2-yl]methyl}cyclopropanecarboxamide]"
7,** (** = 0.1 μM ≤ SC150 < 0.5 μM),"CN1CC[C@H](Nc2cccc3c2cc(-c2nnc(CNC(=O)c4ccccc4)s2)n3CC(F)(F)F)[C@H](F)C1 [Compound 26B, N-{[5-(4-{[(3R,4S)-3-fluoro-1-methylpiperidin-4-yl]amino}-1-(2,2,2-trifluoroethyl)-1H-indol-2-yl)-1,3,4-thiadiazol-2-yl]methyl}benzamide]"
8,** (** = 0.1 μM ≤ SC150 < 0.5 μM),"CN1CCC(Nc2cccc3c2cc(-c2nnc(CNC(=O)C4(F)CC4)s2)n3CC(F)(F)F)CC1 [Compound 31B, 1-fluoro-N-[(5-{4-[(1-methylpiperidin-4-yl)amino]-1-(2,2,2-trifluoroethyl)-1H-indol-2-yl}-1,3,4-thiadiazol-2-yl)methyl]cyclopropane-1-carboxamide]"
9,* (* = 0 μM ≤ SC150 < 0.1 μM),"CN1CCC(Nc2cccc3c2cc(-c2nnc(CNC(=O)C4CC4)s2)n3CC(F)(F)F)CC1 [Compound 35B, N-[(5-{4-[(1-methylpiperidin-4-yl)amino]-1-(2,2,2-trifluoroethyl)-1H-indol-2-yl}-1,3,4-thiadiazol-2-yl)methyl]cyclopropanecarboxamide]"

# Same assay, conditions: concentration to increase DNA binding by […], incubated at either 27° C. or 29° C. for 60 min
row,SC150 (μM),SMILES
1,++ (++ = 2 μM ≤ SC150 < 5 μM),"O=C(NCc1ccc(-c2cc3c(NC4CCS(=O)(=O)CC4)cccc3n2CC(F)(F)F)cc1)c1ccc(Cl)cc1 [Compound 17A, 4-chloro-N-[(4-{4-[(1,1-dioxo-1λ^6-thian-4-yl)amino]-1-(2,2,2-trifluoroethyl)-1H-indol-2-yl}phenyl)methyl]benzamide]"
2,+ (+ = 0 μM ≤ SC150 < 2 μM),"CC(C)(C#N)c1ccc(NC(=O)NCc2ccc(-c3cc4c(NC5CCS(=O)(=O)CC5)cccc4n3CC(F)(F)F)cc2)cn1 [Compound 18A, 3-[6-(1-cyano-1-methylethyl)pyridin-3-yl]-1-[(4-{4-[(1,1-dioxo-1λ^6-thian-4-yl)amino]-1-(2,2,2-trifluoroethyl)-1H-indol-2-yl}phenyl)methyl]urea]"
3,+ (+ = 0 μM ≤ SC150 < 2 μM),"O=C(NCc1ccc(-c2cc3c(NC4CCS(=O)(=O)CC4)cccc3n2CC(F)(F)F)cc1)Nc1ccccc1 [Compound 19A, 3-[(4-{4-[(1,1-dioxo-1λ^6-thian-4-yl)amino]-1-(2,2,2-trifluoroethyl)-1H-indol-2-yl}phenyl)methyl]-1-phenylurea]"
4,++++ (++++ = 10 μM ≤ SC150 < 35 μM),"O=C(O)c1cccc(-c2cc3c(NC4CCS(=O)(=O)CC4)cccc3n2CC(F)(F)F)c1 [Compound 20A, 3-{4-[(1,1-dioxo-1λ^6-thian-4-yl)amino]-1-(2,2,2-trifluoroethyl)-1H-indol-2-yl}benzoic acid]"
5,++ (++ = 2 μM ≤ SC150 < 5 μM),"CN(C)c1cccc(-c2cc3c(NC4CCS(=O)(=O)CC4)cccc3n2CC(F)(F)F)c1 [Compound 21A, 4-({2-[3-(dimethylamino)phenyl]-1-(2,2,2-trifluoroethyl)-1H-indol-4-yl}amino)-1λ^6-thiane-1,1-dione]"
6,++ (++ = 2 μM ≤ SC150 < 5 μM),"CNC(=O)c1cccc(-c2cc3c(NC4CCS(=O)(=O)CC4)cccc3n2CC(F)(F)F)c1 [Compound 22A, 3-{4-[(1,1-dioxo-1λ^6-thian-4-yl)amino]-1-(2,2,2-trifluoroethyl)-1H-indol-2-yl}-N-methylbenzamide]"
7,+++ (+++ = 5 μM ≤ SC150 < 10 μM),"O=S1(=O)CCC(Nc2cccc3c2cc(-c2ccc(CN4CCOCC4)cc2)n3CC(F)(F)F)CC1 [Compound 24A, 4-[(2-{4-[(morpholin-4-yl)methyl]phenyl}-1-(2,2,2-trifluoroethyl)-1H-indol-4-yl)amino]-1λ^6-thiane-1,1-dione]"
8,+++ (+++ = 5 μM ≤ SC150 < 10 μM),"COC(=O)Nc1cccc(-c2cc3c(NC4CCS(=O)(=O)CC4)cccc3n2CC(F)(F)F)c1 [Compound 25A, methyl N-(3-{4-[(1,1-dioxo-1λ^6-thian-4-yl)amino]-1-(2,2,2-trifluoroethyl)-1H-indol-2-yl}phenyl)carbamate]"
9,++ (++ = 2 μM ≤ SC150 < 5 μM),"N#CC1(c2ccc(-c3cc4c(NC5CCS(=O)(=O)CC5)cccc4n3CC(F)(F)F)cc2)CC1 [Compound 26A, 1-(4-{4-[(1,1-dioxo-1λ^6-thian-4-yl)amino]-1-(2,2,2-trifluoroethyl)-1H-indol-2-yl}phenyl)cyclopropane-1-carbonitrile]"
10,++ (++ = 2 μM ≤ SC150 < 5 μM),"O=S1(=O)CCC(Nc2cccc3c2cc(-c2ccc(CO)cc2)n3CC(F)(F)F)CC1 [Compound 27A, 4-({2-[4-(hydroxymethyl)phenyl]-1-(2,2,2-trifluoroethyl)-1H-indol-4-yl}amino)-1λ^6-thiane-1,1-dione]"
11,+ (+ = 0 μM ≤ SC150 < 2 μM),"CS(=O)(=O)c1ccc(NC(=O)NCc2ccc(-c3cc4c(NC5CCS(=O)(=O)CC5)cccc4n3CC(F)(F)F)cc2)cc1 [Compound 28A, 1-[(4-{4-[(1,1-dioxo-1λ^6-thian-4-yl)amino]-1-(2,2,2-trifluoroethyl)-1H-indol-2-yl}phenyl)methyl]-3-(4-methanesulfonylphenyl)urea]"
12,+ (+ = 0 μM ≤ SC150 < 2 μM),"CS(=O)(=O)c1ccc(NCc2ccc(-c3cc4c(NC5CCS(=O)(=O)CC5)cccc4n3CC(F)(F)F)cc2)cn1 [Compound 29A, 4-{[2-(4-{[(6-methanesulfonylpyridin-3-yl)amino]methyl}phenyl)-1-(2,2,2-trifluoroethyl)-1H-indol-4-yl]amino}-1λ^6-thiane-1,1-dione]"
13,+ (+ = 0 μM ≤ SC150 < 2 μM),"CS(=O)(=O)c1ccc(NCc2ccc(-c3cc4c(NC5CCN(C6CCOCC6)CC5)cccc4n3CC(F)(F)F)cc2)cc1 [Compound 30A, 2-(4-{[(4-methanesulfonylphenyl)amino]methyl}phenyl)-N-[1-(oxan-4-yl)piperidin-4-yl]-1-(2,2,2-trifluoroethyl)-1H-indol-4-amine]"
14,+ (+ = 0 μM ≤ SC150 < 2 μM),"Cc1ccc(NCc2ccc(-c3cc4c(NC5CCN(C6CCOCC6)CC5)cccc4n3CC(F)(F)F)cc2)cn1 [Compound 31A, 2-(4-{[(6-methylpyridin-3-yl)amino]methyl}phenyl)-N-[1-(oxan-4-yl)piperidin-4-yl]-1-(2,2,2-trifluoroethyl)-1H-indol-4-amine]"
15,++ (++ = 2 μM ≤ SC150 < 5 μM),"FC(F)(F)Cn1c(-c2ccc(CNc3ccc(Cl)cc3)cc2)cc2c(NC3CCN(C4CCOCC4)CC3)cccc21 [Compound 32A, 2-(4-{[(4-chlorophenyl)amino]methyl}phenyl)-N-[1-(oxan-4-yl)piperidin-4-yl]-1-(2,2,2-trifluoroethyl)-1H-indol-4-amine]"
16,++ (++ = 2 μM ≤ SC150 < 5 μM),"COc1ccc(NCc2ccc(-c3cc4c(NC5CCN(C6CCOCC6)CC5)cccc4n3CC(F)(F)F)cc2)cc1 [Compound 33A, 2-(4-{[(4-methoxyphenyl)amino]methyl}phenyl)-N-[1-(oxan-4-yl)piperidin-4-yl]-1-(2,2,2-trifluoroethyl)-1H-indol-4-amine]"
17,++++ (++++ = 10 μM ≤ SC150 < 35 μM),"FC(F)(F)Cn1c(-c2ccc(CNc3cccc(Cl)c3)cc2)cc2c(NC3CCN(C4CCOCC4)CC3)cccc21 [Compound 34A, 2-(4-{[(3-chlorophenyl)amino]methyl}phenyl)-N-[1-(oxan-4-yl)piperidin-4-yl]-1-(2,2,2-trifluoroethyl)-1H-indol-4-amine]"
18,+++ (+++ = 5 μM ≤ SC150 < 10 μM),"Cc1ccc(NCc2ccc(-c3cc4cc(CNC5CCN(C)CC5)ccc4n3CC(F)(F)F)cc2)cn1 [Compound 35A, 6-methyl-N-{[4-(5-{[(1-methylpiperidin-4-yl)amino]methyl}-1-(2,2,2-trifluoroethyl)-1H-indol-2-yl)phenyl]methyl}pyridin-3-amine]"
19,++ (++ = 2 μM ≤ SC150 < 5 μM),"CN1CCC(NCc2ccc3c(c2)cc(-c2ccc(CNc4ccc(S(C)(=O)=O)cc4)cc2)n3CC(F)(F)F)CC1 [Compound 36A, N-{[2-(4-{[(4-methanesulfonylphenyl)amino]methyl}phenyl)-1-(2,2,2-trifluoroethyl)-1H-indol-5-yl]methyl}-1-methylpiperidin-4-amine]"
